Experimental data reported in article PMC8006777 (Journal of the American Chemical Society, 2020).

Target: MPP1 (Manganese Porphyrin-binding Protein 1)
Test: UV-vis absorption titration
Design: species or system synthetic construct

C1=CC2=[N+]3C1=Cc1ccc4[n]1[Mn-]31[n]3c(ccc3=C2c2ccccc2)=CC2=[N+]1C(=C4c1ccccc1)C=C2 (stereo not shown) [Mn(III)DPP]
Kd: 122 ± 19 nM
